Laboratory results from patent US20240025844A1, “PHENYL UREA ANALOGS AS FORMYL PEPTIDE RECEPTOR 1 (FPR1) SELECTIVE AGONISTS” (Allergan, Inc., priority 2018, published 2024).

How the values were obtained:
FPR2 = target: T1, FPR2 (Homo sapiens, UniProt P25090); test: Compound-induced calcium activity on FLIPR Tetra in Gα16 cells stably expressing FPR2; format: cell-based; settings: for FPR2 Ga16-HEK293 (Rel. eff.): relative efficacy, value in brackets, table head Ga16-HEK293, text CHO-Gα16 cells; for EC50: table head Ga16-HEK293, text CHO-Gα16 cells stably expressing FPR2, tested 0.61 to 10,000 nM
T1 construct: expressed in transfected cells; host or cells: CHO-Gα16 cells
T1 sequence (P25090 1-351): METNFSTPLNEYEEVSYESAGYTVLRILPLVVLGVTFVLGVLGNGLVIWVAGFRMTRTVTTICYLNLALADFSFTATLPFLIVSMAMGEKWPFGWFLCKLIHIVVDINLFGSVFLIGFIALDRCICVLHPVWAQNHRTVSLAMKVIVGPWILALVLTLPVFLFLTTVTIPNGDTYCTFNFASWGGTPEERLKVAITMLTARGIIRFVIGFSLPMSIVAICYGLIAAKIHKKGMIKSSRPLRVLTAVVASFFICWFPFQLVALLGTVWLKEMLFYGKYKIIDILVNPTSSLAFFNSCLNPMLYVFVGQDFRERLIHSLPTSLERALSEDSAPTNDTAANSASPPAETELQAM
Procedure: (§1) CHO-Gα16 cells stably expressing FPR1 or FPR2 were cultured in (F12, 10% FBS, 1% PSA, 400 μg/ml geneticin and 50 μg/ml hygromycin). In general, the day before the experiment, 18,000 cells/well were plated in a 384-well clear bottom poly-D-lysine coated plate. The following day the screening compound-induced calcium activity was assayed on the FLIPR^Tetra. The drug plates were prepared in 384-well microplates using the EP3 and the MultiPROBE robotic liquid handling systems. Compounds were tested at concentrations ranging from 0.61 to 10,000 nM. Results are expressed as EC50 (nM) and efficacy values.

FPR1 = target: T2, FPR1 (Homo sapiens, UniProt P21462); test: Compound-induced calcium activity on FLIPR Tetra in Gα16 cells stably expressing FPR1; format: cell-based; settings: for FPR1 Ga16-HEK293 (Rel. eff.): relative efficacy, value in brackets, table head Ga16-HEK293, text CHO-Gα16 cells; for EC50: table head Ga16-HEK293, text CHO-Gα16 cells stably expressing FPR1, tested 0.61 to 10,000 nM
T2 construct: expressed in transfected cells; host or cells: CHO-Gα16 cells
T2 sequence (P21462 1-350): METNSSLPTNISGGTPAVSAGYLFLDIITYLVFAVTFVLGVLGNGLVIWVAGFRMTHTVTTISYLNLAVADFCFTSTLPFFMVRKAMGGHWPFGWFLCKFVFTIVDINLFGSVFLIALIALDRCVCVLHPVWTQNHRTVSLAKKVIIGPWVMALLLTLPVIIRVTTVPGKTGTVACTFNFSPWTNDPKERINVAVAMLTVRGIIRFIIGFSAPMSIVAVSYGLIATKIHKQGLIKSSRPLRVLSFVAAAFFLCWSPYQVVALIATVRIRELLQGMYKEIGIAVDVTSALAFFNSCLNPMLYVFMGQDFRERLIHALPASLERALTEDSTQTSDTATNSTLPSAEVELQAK
Procedure: as §1

| SMILES | FPR2 Ga16-HEK293 (Rel. eff.) (FPR2) | EC50 (FPR2) | FPR1 Ga16-HEK293 (Rel. eff.) (FPR1) | EC50 (FPR1) |
| --- | --- | --- | --- | --- |
| CC(C)C[C@H](NC(=O)CNC(=O)Nc1ccc(Br)cc1)C(=O)O [Compound 1, (S)-2-(2-(3-(4-bromophenyl)ureido)acetamido)-4-methylpentanoic acid] | 0.91 | 0.224 µM | 1.00 | 0.00058 µM |
| CC(C)C[C@H](NC(=O)CCNC(=O)Nc1ccc(Br)cc1)C(=O)O [Compound 5, (S)-2-(3-(3-(4-bromophenyl)ureido)propanamido)-4-methylpentanoic acid] | 0.81 | 5.63 µM | 0.99 | 0.076 µM |
| CCC[C@H](NC(=O)CNC(=O)Nc1ccc(Br)cc1)C(=O)O [Compound 6, (S)-2-(2-(3-(4-bromophenyl)ureido)acetamido)pentanoic acid] | 1.05 | 0.308 µM | 0.98 | 0.00493 µM |
| O=C(CNC(=O)Nc1ccc(Br)cc1)N[C@@H](Cc1ccccc1)C(=O)O [Compound 4, (S)-2-(2-(3-(4-bromophenyl)ureido)acetamido)-3-phenylpropanoic acid] | 1.07 | 0.356 µM | 0.97 | 0.0147 µM |
